Assay results published in US20150099800A1, “NOVEL LIPASE INHIBITORS, REPORTER SUBSTRATES AND USES THEREOF” (Northeastern University, priority 2012, published 2015).
Where two headings read alike, the source gives them in different places.

Key:
[1] = Stability of FRET reporter substrates to uncatalyzed hydrolysis; format: physicochemical
Text: (§1) A convenient in vitro fluorometric esterase assay utilizing the BioTek Instruments Synergy™ HT Multi-Mode Microplate 96-well reader was developed that measured nanomolar concentrations of fluorescent reaction product.

[2] = target: T1, hDAGLα (Homo sapiens, UniProt Q9Y4D2); experiment: Evaluation of FRET reporter substrates for enzymatic hydrolysis; format: biochemical; parameters: V5; His; expressed in transfected cells; host or cells: HEK293T, transient; crude cell lysate or membrane preparation
T1 sequence (Q9Y4D2 1-1042): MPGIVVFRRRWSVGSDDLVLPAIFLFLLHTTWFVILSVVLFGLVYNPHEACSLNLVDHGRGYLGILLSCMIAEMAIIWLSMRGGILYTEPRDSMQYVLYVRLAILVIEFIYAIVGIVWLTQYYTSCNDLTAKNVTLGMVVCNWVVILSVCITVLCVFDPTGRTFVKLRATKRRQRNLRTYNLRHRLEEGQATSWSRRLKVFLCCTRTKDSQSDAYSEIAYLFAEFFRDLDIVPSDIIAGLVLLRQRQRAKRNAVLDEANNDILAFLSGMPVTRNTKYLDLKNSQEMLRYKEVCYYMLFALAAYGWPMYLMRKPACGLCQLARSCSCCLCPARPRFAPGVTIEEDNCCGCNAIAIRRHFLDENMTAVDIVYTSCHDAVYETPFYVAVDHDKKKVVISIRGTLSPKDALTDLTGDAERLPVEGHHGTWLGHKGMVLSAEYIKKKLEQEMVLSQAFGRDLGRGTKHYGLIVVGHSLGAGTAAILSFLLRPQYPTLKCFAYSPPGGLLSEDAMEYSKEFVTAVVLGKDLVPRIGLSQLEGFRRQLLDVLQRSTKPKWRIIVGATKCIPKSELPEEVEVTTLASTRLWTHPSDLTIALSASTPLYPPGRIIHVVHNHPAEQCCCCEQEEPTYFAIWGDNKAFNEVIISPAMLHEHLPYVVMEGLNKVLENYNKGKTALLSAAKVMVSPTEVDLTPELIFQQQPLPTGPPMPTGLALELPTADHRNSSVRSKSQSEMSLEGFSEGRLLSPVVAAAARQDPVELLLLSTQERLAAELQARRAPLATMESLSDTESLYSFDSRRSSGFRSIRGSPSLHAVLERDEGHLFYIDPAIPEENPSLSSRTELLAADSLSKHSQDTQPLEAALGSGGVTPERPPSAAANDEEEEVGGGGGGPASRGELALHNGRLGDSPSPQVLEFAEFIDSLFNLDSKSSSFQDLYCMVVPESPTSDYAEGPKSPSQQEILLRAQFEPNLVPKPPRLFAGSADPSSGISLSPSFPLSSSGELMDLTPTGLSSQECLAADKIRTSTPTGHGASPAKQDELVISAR
Text: Reporter compounds as substrates for hDAGLα activity with HEK293T cell lysates in the presence of 10% DMSO are shown. A) Pyrenyl analogs (17)-(19), (21), and (22) (EX 320 nm, EM 400 nm). B) NBD analog (20) (EX 485 nm, EM 535 nm).
as §1

[3] = target: T2, MAGL (Homo sapiens, UniProt Q99685); experiment: hMAGL coumarin substrate fluorescence assay; format: biochemical; parameters: The N-terminal his-tagged full length human monoacylglycerol lipase used; His (N); made in house; host or cells: E. coli; settings: read-out: hMAGL inhibition at 10 μM (%)
T2 sequence (Q99685 1-303): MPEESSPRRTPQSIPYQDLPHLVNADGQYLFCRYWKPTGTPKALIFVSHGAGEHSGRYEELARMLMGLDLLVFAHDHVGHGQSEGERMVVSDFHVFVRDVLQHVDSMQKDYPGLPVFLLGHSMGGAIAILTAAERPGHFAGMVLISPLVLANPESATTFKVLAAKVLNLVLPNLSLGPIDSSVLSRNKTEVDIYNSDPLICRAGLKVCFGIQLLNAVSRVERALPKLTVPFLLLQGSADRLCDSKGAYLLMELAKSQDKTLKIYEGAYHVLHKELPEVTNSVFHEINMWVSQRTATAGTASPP

[4] = target: T2, MAGL; settings: cited from earlier work
[5] = target: T1, hDAGLα; experiment: biochemical
[6] = target: T3, mDAGLα (Mus musculus, UniProt Q6WQJ1); experiment: Radio-TLC assay with [14C]SAG substrate, mDAGLα; settings: read-out: mDAGLα inhibition at 10000 nM (%)
T3 sequence (Q6WQJ1 1-1044): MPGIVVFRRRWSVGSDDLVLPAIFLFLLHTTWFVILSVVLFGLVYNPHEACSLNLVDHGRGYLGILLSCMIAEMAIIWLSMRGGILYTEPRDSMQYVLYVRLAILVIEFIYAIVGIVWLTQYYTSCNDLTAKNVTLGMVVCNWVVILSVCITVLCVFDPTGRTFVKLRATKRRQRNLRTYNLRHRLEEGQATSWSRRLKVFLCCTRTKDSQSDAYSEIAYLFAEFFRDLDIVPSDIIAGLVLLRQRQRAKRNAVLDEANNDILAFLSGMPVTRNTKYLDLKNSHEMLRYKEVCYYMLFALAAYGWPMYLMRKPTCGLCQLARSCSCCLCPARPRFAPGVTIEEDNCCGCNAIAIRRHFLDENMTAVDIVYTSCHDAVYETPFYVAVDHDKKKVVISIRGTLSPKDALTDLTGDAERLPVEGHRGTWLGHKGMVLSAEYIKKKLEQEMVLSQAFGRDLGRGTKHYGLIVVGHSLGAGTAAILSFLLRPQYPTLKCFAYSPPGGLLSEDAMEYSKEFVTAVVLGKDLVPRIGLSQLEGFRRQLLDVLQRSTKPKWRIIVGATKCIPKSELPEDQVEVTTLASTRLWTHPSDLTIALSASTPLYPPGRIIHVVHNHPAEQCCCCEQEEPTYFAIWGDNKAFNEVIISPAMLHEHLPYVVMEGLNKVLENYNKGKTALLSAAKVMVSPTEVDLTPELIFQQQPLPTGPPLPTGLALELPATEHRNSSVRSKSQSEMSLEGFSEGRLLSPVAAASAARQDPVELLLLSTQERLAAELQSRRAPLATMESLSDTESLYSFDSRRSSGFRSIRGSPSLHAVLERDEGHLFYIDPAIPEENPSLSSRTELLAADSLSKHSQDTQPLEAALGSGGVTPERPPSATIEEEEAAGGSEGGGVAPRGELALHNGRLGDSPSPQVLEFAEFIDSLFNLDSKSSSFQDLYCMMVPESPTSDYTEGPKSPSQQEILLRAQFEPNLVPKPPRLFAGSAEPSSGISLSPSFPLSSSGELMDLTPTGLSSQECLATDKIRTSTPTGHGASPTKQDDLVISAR

[7] = system: cannabinoid receptors; settings: cited from earlier work
[8] = system: Lipoprotein Lipase (Bacterial); format: biochemical, Pseudomonas sp.
[9] = target: T4, Pancreatic Lipase (Porcine) (Sus scrofa, UniProt P00591); format: biochemical; settings: read-out: Pancreatic Lipase (Porcine) inhibition at 10 μM (%)
T4 construct: purchased Sigma L3126
T4 sequence (P00591 1-450): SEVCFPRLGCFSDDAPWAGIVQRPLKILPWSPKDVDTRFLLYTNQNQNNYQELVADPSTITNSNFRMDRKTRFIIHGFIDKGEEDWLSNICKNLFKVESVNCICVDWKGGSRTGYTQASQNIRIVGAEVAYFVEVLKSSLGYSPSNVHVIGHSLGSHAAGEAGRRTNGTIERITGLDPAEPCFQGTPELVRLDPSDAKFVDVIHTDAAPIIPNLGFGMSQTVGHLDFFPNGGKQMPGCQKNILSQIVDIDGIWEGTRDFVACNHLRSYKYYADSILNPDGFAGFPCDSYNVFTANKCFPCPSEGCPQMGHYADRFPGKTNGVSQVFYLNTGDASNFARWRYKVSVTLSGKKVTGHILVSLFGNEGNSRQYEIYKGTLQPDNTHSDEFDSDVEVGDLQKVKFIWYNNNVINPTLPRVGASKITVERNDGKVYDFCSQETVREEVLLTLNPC

stability to uncatalyzed hydrolysis at neutral pH [1]	quality as substrate for enzymatic hydrolysis [2]	SMILES	inhibition at 10 µM [3]	inhibition of MAGL activity reported in the literature [4]	inhibition at 10 µM ([5]; read-out: hDAGLα inhibition at 10 μM detergent free (%), FRET)	inhibition at 10 µM ([5]; read-out: hDAGLα inhibition at 10 μM detergent free (%), FRET, marker °)	inhibition at 10 µM [6]	binding to the cannabinoid receptors, previous reports [7]	Lipoprotein Lipase (Bacterial) inhibition at 10 μM (%) [8]	inhibition at 10 µM [9]
stable	best enzyme substrates	COC[C@@H](COC(=O)CCCCCNc1ccc([N+](=O)[O-])cc1[N+](=O)[O-])OC(=O)CCCc1ccc2ccc3cccc4ccc1c2c34 [Compound 17, 1-((2,4-Dinitrophenyl)amino)hexanoyl-2-pyrenebutanoyl-3-methyl-sn-glycerol]	–	–	–	–	–	–	–	–
stable	best enzyme substrates	COC[C@@H](COC(=O)CCCc1ccc2ccc3cccc4ccc1c2c34)OC(=O)CCCCCNc1ccc([N+](=O)[O-])cc1[N+](=O)[O-] [Compound 18, 1-Pyrenebutanoyl-2-((2,4-dinitrophenyl)amino)hexanoyl-3-methyl-sn-glycerol]	–	–	–	–	–	–	–	–
–	–	NC(=O)c1cccc(-c2cccc(OC(=O)NC3CCCCC3)c2)c1 [URB597]	18%	poor inhibitors	22%	7%	< 0%	did not bind	21%	68%
